We go through one compound from patent US5484778A, “Phthalocyanine photosensitizers for photodynamic therapy and methods for their use” (priority 1993, dated 1996).

“Also recorded” adds a separate entry of the source. Read-outs that look alike come from different tables or passages of the source.

Experiment [1] concerns Chinese hamster V79-379 cells. In words: Growth delay of V79 cultures after red light (Table 1). It counts as cell-based. An outline of the steps: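 V79-379 lung fibroblasts were pretreated 18 h with phthalocyanines (0.5-1.0 μM final) or 1 μM AlPcCl, then irradiated in HBSS with >600 nm light at 12 kJ/m^2. Cells were counted over 3 days. Growth delay is the time for cell density to regain its level at irradiation, reported as a ratio to same-experiment AlPcCl.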

The test system of a further experiment is V79 cells. In words: Clonogenicity, killing of V79 cells using photodynamic therapy (Table 3). Format: cell-based, Chinese hamster. In a few lines:
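V79 Chinese hamster lung fibroblasts were loaded with 0.5 or 1.0 μM phthalocyanine, then about 18 h later irradiated with increasing doses of 675 nm broad-band red light (tungsten-halogen lamp, 600 nm high-pass filter). Recorded value is the light dose killing 90% of cells, or, failing that, the maximum kill (% survival) and its dose.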

In the next experiment the test system is L5178Y-R (LY-R) cells. Put plainly: Clonogenic survival of PDT-treated L5178Y-R cells (Tables 4 and 5, FIG. 3). Format: cell-based, mouse. Particulars: for viability at 0.5 µM: Mus musculus, read-out: normalized plating efficiency / percent survival, 0.5 μM. Here is the method: Mouse lymphoma L5178y-R (hereinafter also referred to as "LY-R") cells were grown in suspension culture as described in Ramakrishnan N., Oleinick, N. L. Clay, M. E., Horng, M. F., Antunez, A. R., and Evans H. H., DNA lesions and DNA degradation in mouse lymphoma L5178Y cells after photodynamic treatment sensitized by chloroaluminum phthalocyanine. Photochem. Photobiol. 50, 373-378, 1989 and Agarwal, M. L., Clay, M. E., Harvey, E. J., Evans, H. H., Antunez, A. R., and Oleinick, N. L. Photodynamic therapy induces rapid cell death by apoptosis in L5178Y mouse lymphoma cells. Cancer Res., 51, 5993-5996, 1991.
The cells were used while in exponential growth. Stock solutions of either 0.5 or 1 mM of PcIV, PcXII, PcX, PcXVIII were prepared in dimethylformamide unless otherwise indicated and added to the 10 mL medium at a rate of 1 μL per mL. After allowing 18 hours for uptake of the phthalocyanine into the cells, the flasks containing the cultures were placed on a glass exposure tray above a 500-W tungsten-halogen lamp. The exposure tray was fitted with a 600-nm high-pass filter. Flasks were exposed to various fluences of red light (up to 30 kJ/m^2) at a fluence rate of approximately 74 W/m^2). After irradiation, the cells were collected by centrifugation.
For measurement of clonogenic cell survival, aliquots were plated in medium containing soft agar as described in Ramakrishnan N., Oleinick, N. L. Clay, M. E., Horng, M. F., Antunez, A. R., and Evans H. H., DNA lesions and DNA degradation in mouse lymphoma L5178Y cells after photodynamic treatment sensitized by chloroaluminum phthalocyanine. Photochem. Photobiol. 50, 373-378, 1989. The aliquots were plated in sufficient numbers to produce 50-200 colonies. The dishes were kept in an incubator at 37° C. in an atmosphere of 5% CO2 and 95% air for 10-14 days to allow viable cells to form colonies. Colonies were counted by eye. Controls treated with the phthalocyanine alone had plating efficiencies of ~90%. The plating efficiencies of the treated cells are normalized to the plating efficiencies of control cells in each experiment. For measurement of the induction of apoptosis, DNA was isolated from the treated and control cells 2 hours after photodynamic therapy, subjected to electrophoresis on 1.5% agarose, stained with ethidium bromide, and visualized by UV transillumination, as described in Agarwal et. al. The results are shown in Tables 4, 5 and 6 and in FIG. 3.
In Table 4 each phthalocyanine was present at 0.5 μM, and the normalized plating efficiencies are presented as mean and standard deviation at each fluence tested. […] This relative activity of these four phthalocyanines is the same as obtained from screening in V79 cells.
PcXII when present in the culture medium at 0.5 μM requires less light, that is the lowest fluence, to kill either 50% […] of the cells. PcIV is about 80% as active as PcXII, PcX is 44% as active as PcXII and PcXVIII is 22% as active as PcXII.

The test system of the next experiment is L5178Y cells. Put plainly: Induction of apoptosis (DNA fragmentation) in L5178Y-R cells (Table 6). It counts as cell-based, mouse. The following applies: 0.4 μM. An outline of the steps:
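Exponentially growing mouse lymphoma L5178Y-R cells loaded 18 hours with phthalocyanine at various concentrations, then irradiated with >600 nm red light (up to 30 kJ/m^2, ~74 W/m^2). DNA isolated 2 hours post-PDT, run on 1.5% agarose; value is minimum PDT dose (concentration × fluence) giving visible DNA ladder.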

With `CN(C)CCC[Si](C)(C)O[Si]1(O)n2c3c4ccccc4c2N=C2N=C(N=c4c5ccccc5c(n41)=NC1=NC(=N3)c3ccccc31)c1ccccc12` (stereo not shown) [Compound IV, HOSiPcOsi(CH3)2)(CH2)3 N(CH3)2], the “Growth Delay, efficiency relative to 1 μM AlPcCl” value in experiment [1] (0.5 μM, 18 h, 12 kJ/m^2 red light) is reported as greater than 3. Further, the “inhibition of V79 culture growth (in words)” value in experiment [1] (red light 12 kJ/m^2, three day period) was “substantial inhibition”. For the same compound, the “LD 90” value with V79 cells (0.5 μM, 18 h, light dose killing 90% of cells) stood at 4 kJ/m^2; in the experiment on L5178Y-R (LY-R) cells (0.5 μM, fluence reducing survival to 10%) it was 2.15 kJ/m^2. Besides, in the experiment on V79 cells (discussion of Table 3), the “photosensitizing activity, killing V79 cells (in words)” value is recorded as “most active at killing V79 cells”. The “activity relative to PcXII” value with L5178Y-R (LY-R) cells (0.5 μM, from Table 5) is “about 80%”. For the same compound, the LD50 in the experiment with L5178Y-R (LY-R) cells (0.5 μM, fluence reducing survival to 50%) is listed as 1.38 kJ/m^2. In addition, the “photosensitizer activity in LY-R cells (in words)” value with L5178Y-R (LY-R) cells (0.5 μM, listed as PcIV) is “active photosensitizers; also recorded: most active”. In addition, the viability at 0.5 µM with L5178Y-R (LY-R) cells (0 kJ/m^2) was found to be 100%; in the experiment with L5178Y-R (LY-R) cells (1 kJ/m^2) it was 80.9%; in the experiment with L5178Y-R (LY-R) cells (2 kJ/m^2), 19.7%; in the experiment with L5178Y-R (LY-R) cells (2.5 kJ/m^2), 0.82%; in the experiment with L5178Y-R (LY-R) cells (3 kJ/m^2), 0.16%; with L5178Y-R (LY-R) cells (5 kJ/m^2), 0.014%. Also, the “Minimum Demonstrated Condition to induce apoptosis: C × F” value in the experiment with L5178Y cells came out at 1.2 μm × kJ/m^2. The “Minimum Demonstrated Condition to induce apoptosis: Fluence” value in the experiment on L5178Y cells was determined as 3.0 kJ/m^2.
